Measurements: US20220217970A1, “Perfusion Regulated Organ Therapeutics with Enhanced Controlled Testing” (priority 2021, published 2022)

Tests used:
[1] = system: split human marginal donor liver (MDL) lobes; test: Serological liver injury markers during PROTECT normothermic perfusion of split liver lobes (Experiment 2); details: DM infusion 0.6 mmol/L, listed as DMAT
Text: In order to provide anatomic perfusion, a novel NMP described above and shown in FIGS. 1 and 2 was developed using an extra-corporal membrane oxygenation (ECMO) roller pump (Sorin/Stockert S3) with a modified circuit to provide dual blood supply to the hepatic artery and portal vein. Incorporated into this design was an arterial supply that passes through an oxygenator (Capiox Fx) and was connected to the hepatic artery.
Portal venous blood supply bypassed the oxygenator, was delivered to a reservoir, and then flowed by gravity into the portal vein. Pressure was regulated by the intrinsic resistance within the liver's arterial and portal venous circulations, combined with the resistance within the two limbs of the circuit and the flow delivered to each. […]
The circuit was monitored under guidance from a University certified ECMO perfusionist and the hospital ECMO physician team. […]
During each perfusion run (Table 1), laboratory analysis was carried out at regular intervals. Perfusate pH, pCO2, pO2, bicarbonate levels, and serum electrolytes (Na^+, K^+, Cl^−, ionized Ca^2+) were monitored every hour by automated blood gas analysis of both arterial and portal venous blood samples. […] Serum markers of liver injury, specifically AST, ALT, GGT, and alkaline phosphatase, were monitored hourly. […]
(§1) DM Dosing: In addition to the liver lobe weight, the volume of the cold preservation solution was measured. […]

[2] = system: split human marginal donor liver (MDL) lobes; test: Ki67 and CK-7 immunohistochemistry labeling index of perfused split lobes (Experiment 2)
Description: As a proof of concept, the system 10 was used to test the effect on IRI by deferoxamine (DM), which is a chelator of iron and a ferroptosis regulator. During the testing, one liver lobe was used as an internal control for the treated lobe. Ferroptosis, an iron-dependent form of programmed cell death, has been implicated as a mechanism of pathogenesis in models of liver, kidney, and lung reperfusion injury. […] In the DM Agent Treated (DMAT) lobe, DM was administered to one split liver segment, while the other segment served as the No Agent Internal Control (NAIC) lobe. This experiment was deemed as Experiment 2.
as §1
Liver biopsy tissue from each liver segment was fixed in 10% buffered formalin for 24 hours. […] The following describes the specific stains and the methods utilized for quantification.
Ki67 labeling index: The nuclear antigen Ki67 is expressed in the cell cycle phases G1, S, G2 and M, however not during G0. The percentage of the Ki67 positive nuclei are expressed as a labeling index, which provides an objective cell proliferation index in the tissues. […] All the positive (immunoreactive) hepatic nuclei were calculated and subsequently divided by the total number of cells in 5 non-overlapping high-power fields. […]

In the case of `CC(=O)N(O)CCCCCNC(=O)CCC(=O)N(O)CCCCCNC(=O)CCC(=O)N(O)CCCCCN` [Deferoxamine], the “ΔALT (change in serum ALT over the course of the experiment)” value ([1]; Experiment 2, DM Agent Treated lobe vs No Agent Internal Control lobe (ΔALT NAIC 586)) is reported as −405, the “ΔAST (change in serum AST over the course of the experiment)” value ([1]; Experiment 2, DM Agent Treated lobe vs No Agent Internal Control lobe (ΔAST NAIC 617)) is reported as −380 and the “CK-7 expression (labeling index, bile duct proliferation)” value ([2]; Experiment 2, DMAT lobe (NAIC 0.30, p=0.29, n=5)) is reported as 0.26. The “Ki67 index (hepatocellular proliferation)” value ([2]; conclusion of Experiment 2, DMAT lobe (NAIC 0.38, p=0.16)) was 0.32.
